According to US9617276B2, “Compounds and methods for treating AIDS and HIV infections” (priority 2009, dated 2017):
Read-outs that look alike come from different tables or passages of the source.

Legend:
[1] = target: T1, HIV-1 protease (Human immunodeficiency virus type 1 group M subtype B, UniProt P04585); test: HIV protease enzyme inhibition, fluorometric assay of Toth and Marshall; type: biochemical; settings: read-out: Ki
T1 construct: A simple, continuous fluorometric assay for HIV protease
Description: (§1) The inhibitory potencies of acyclic and cyclic inhibitors were measured by the assay protocol of Toth and Marshall (Toth, M. V.; Marshall, G. R. A simple, continuous fluorometric assay for HIV protease. Int. J. Pep. Protien Res. 1990, 36, 544-55).

[2] = test system: HIV-1; test: antiviral assay (IC50); type: cell-based; settings: read-out: IC50
Description: as §1

SMILES	Ki ([1]; Table 4)	IC50 ([2]; Table 4)	Ki [1]	IC50 [2]	IC50 ([2]; Human immunodeficiency virus 1, Table 4)
COc1ccc2c(c1)OCCCCC=CCC(C)(C)CN(CC(O)C(Cc1ccccc1)NC(=O)OC1COC3OCCC13)S2(=O)=O (stereo not drawn) [Compound 21a]	< 0.01 µM	> 1 µM	–	–	–
COc1ccc2c(c1)OCCCCC=CCC(C)CN(CC(O)C(Cc1ccccc1)NC(=O)OC1COC3OCCC13)S2(=O)=O (stereo not drawn) [Compound 21b]	< 0.01 µM	< 0.01 µM	0.0028 µM	0.0063 µM	–
COc1ccc2c(c1)OCCCCC=CCC(C)CN(CC(O)C(Cc1ccccc1)NC(=O)OC1COC3OCCC13)S2(=O)=O (stereo not drawn) [Compound 21c]	< 0.001 µM	< 0.1 µM	–	–	–
COc1ccc2c(c1)OCCCCCCCC(C)(C)CN(CC(O)C(Cc1ccccc1)NC(=O)OC1COC3OCCC13)S2(=O)=O (stereo not drawn) [Compound 22a]	< 0.01 µM	–	–	–	> 1 µM
COc1ccc2c(c1)OCCCCCCCC(C)CN(CC(O)C(Cc1ccccc1)NC(=O)OC1COC3OCCC13)S2(=O)=O (stereo not drawn) [Compound 22b]	< 0.001 µM	< 1 µM	–	–	–
